Test results published in patent US8318697B2, “Prophylactic and therapeutic treatment of infectious and other diseases with mono- and disaccharide-based compounds” (Corixa Corporation, priority 2000, dated 2012).
Like-named read-outs stand apart in the source and are kept apart here.

Tests used:
[1] = test system: human whole blood; assay type: cell-based; details: for IL10/TNFα cba: ratio of IL-10 to TNF; for TNFα/IL10 cba: ratio of TNF to IL-10
[2] = test system: Ogawa P. gingivalis LPS stimulated whole blood cells; experiment: Inhibition of LPS-induced cytokines in whole blood; assay type: cell-based, human; details: 10, 5, 2.5 ug/mL
Text: Table 4 provides the maximum levels of IL-4, IL-2 and IL-5 obtained, as well as ratios of TNF to IL-10, and ratios of IL-10 to TNF. Inhibition data for IL-8, reported as a percentage, are also provided on the right hand side of Table 4. For example, 90% inhibition would calculate to a 90% reduction of cytokine levels. MIP-1β results were similar. […]

[3] = test system: human PBMCs; experiment: Lineage specific cell surface activation markers in human PBMCs; assay type: cell-based; details: LPS 10 ng/ml, RC-526 or RC-527 10 μg/ml
Method: This experiment describes lineage specific cell surface activation markers in human PBMCs activated with LPS or selected AGPs. PBMCs were harvested from a normal donor and plated at 1×10^7 cells/well in a […] (6 well plate) with 3 ml RPMI. LPS (10 ng/ml), RC-526 (10 μg/ml) or RC-527 (10 μg/ml) were added to each of 4 wells. Cells were harvested from each of 2 wells at 4 hr and 24 hr following activation and immediately stained for the lineage and cell surface activation markers.

[4] = test system: L. monocytogenes 10403 serotype; experiment: Murine Listeria monocytogenes challenge model; assay type: in vivo, Mice; details: 1 μg intravenously in 0.2% TEOA, challenge two days later; FIGS. 14-17
Method: This example provides experiments evaluating the induction of non-specific resistance in the murine Listeria monocytogenes challenge model performed using various AGPs and MPL. Mice (5 per group) were treated intravenously with the 1 μg of an AGP or MPL solubilized in 0.2% TEOA. Two days later the mice were challenged intravenously with a ˜10^5 L. monocytogenes 10403 serotype (provided by M. L. Gray, Montana State University, Bozeman, Mont.). Two days after the challenge, the mice were sacrificed and the number of colony forming units (CFUs) in the spleens of individual mice were determined by plating 10-fold serial dilutions of splenic homogenates on tryptic soy agar plates. The degree of protection afforded by a given AGP or MPL was calculated by subtracting the average number of bacteria per spleen (log 10 value) in the group of mice treated with a given compound, from the average number of bacteria per spleen (log 10 value) in a control group that was “sham” treated with vehicle (0.2% TEOA) prior to challenge with L. monocytogenes.

[5] = test system: influenza A/HK/68; experiment: Lethal influenza challenge model, intranasal monotherapy; details: i.n., doses up to 40 μg; FIG. 12
Method: A dose of 20 μg MonoPhosphoryl Lipid A (MPL) was given to groups of female BALB/c mice by intranasal (i.n.) administration either 2 days prior to or the day of lethal influenza challenge. All mice were challenged with approximately 2 LD50 infectious influenza A/HK/68 administered i.n. Mortality was monitored for 21 days following influenza challenge.
A dose of 20 μg L-Seryl AGPs (RC-526, RC-554, RC-555, RC-537, RC-527, RC-538, RC-560, RC-512 and vehicle only) was given to groups of female BALB/c mice by intranasal (i.n.) administration 2 days prior to or the day of lethal influenza challenge. All mice were challenged with approximately 2 LD50 infectious influenza A/HK/68 administered i.n. The disease index (ruffled fur, hunched posture and labored breathing) was monitored during days 4-19 following influenza challenge. Weight loss and mortality were monitored for 21 days following influenza challenge.

[6] = test system: P. carinii; experiment: Protection against P. carinii infection in anti-CD4 treated (immunocompromised) mice, lung impression smear score; assay type: in vivo; parameters: GIEMSA score for presence of P. carinii / SILVER score for presence of P. carinii: scale not given here
Method: Mice were pretreated with L3T4 anti-CD4 antibody for a minimum of 2 weeks (2 injections/week, 0.2 mg/injection) or until the peripheral CD4 count was reduced by at least about 50%.
An aqueous formulation was prepared containing 1 mg/ml 3-O-deacylated monophosphoryl lipid A and 108 μg/ml of the surfactant DPPC in water. The formulation was administered intratracheally via a small cannula at −24 hours and then twice a week for the remainder of the study. The concentrations administered are indicated below in Table 1. One million P. carinii were inoculated trans-tracheally at day 0. Twice-weekly treatments were continued for 7 weeks, lungs were removed and impression smears made. Slides were stained with Giemsa and silver and scored for the presence of P. carinni as follows.

[7] = test system: C3H/HEJ splenocytes; experiment: Cytokine induction in C3H/HEJ (toll-receptor 4 mutant) mouse splenic cultures; assay type: cell-based
Method: Lipid A compounds were tested by reconstitution in 0.2% triethanolamine in sterile water for irrigation, incubated at 56° C. and sonicated for 2×10 minutes at 37° C. LPS 055B5 (Sigma-Aldrich; St Louis, Mo.) was diluted into PBS.
BALB/c, DBA/2 and C3H/HEJ mice were purchased from The Jackson Laboratory (Bar Harbor, Me.). Spleens were taken from the mice between 2 PM and 3 PM, and separate single cell suspensions were obtained for each mouse strain. Red blood cells were lysed using Tris-ammonium chloride solution (Sigma-Aldrich), cells were washed and counted using Trypan Blue (Sigma-Aldrich) exclusion. One million splenocytes were cultured per well in 1.0 mL of culture medium. Splenic culture medium (SCM) was designed for 5 day or longer cultures of mouse splenocytes and consisted of RPMI 1640 (Sigma-Aldrich) supplemented to 5% with fetal bovine serum (HyClone; Logan, Utah), 100 ug/mL Gentamicin (Sigma-Aldrich), 250 ng/mL amphothericin (InVitrogen Life Technologies; Carlsbad, Calif.), 1×ITS (bovine insulin 500 ng/mL, human transferring 500 ng/mLg, sodium selenite 250 ng/mL, Sigma), beta-mercaptoethanol 43 nM (Sigma-Aldrich) purivic acid 1 mM (Sigma-Aldrich), HEPES 10 mM (Sigma-Aldrich). Data from these experiments is presented herein as FIG. 8.
BALB/c responses and C3H/HEJ responses were compared for MPL and RC552. […]

[8] = test system: human macrophage; experiment: Microarray of RNA from stimulated human macrophage; assay type: cell-based
[9] = test system: human peripheral blood mononuclear cells (PBMC); experiment: Cytokine elaboration from frozen human PBMC (ELISA); assay type: cell-based; details: PBMC donor AD112, 22 hours; FIG. 9
Method: PBMC were stored frozen until used. PBMC donor designation was AD112. PBMC at a density of 6.26×10^5 were plated per well in a 48 well plate in 1.0 ml of medium. Medium consisted of RPMI-1640 plus sodium bicarbonate, 10% fetal bovine serum, 4 mM glutamine, 100 ug/ml gentamicin and 10 mM HEPES. PBMC were cultured for 22 hours at 37° C. in a carbon dioxide incubator. Supernatants were harvested and tested by ELISA (R&D Systems) for IL-6, IL-8, IL-10 and MIP-1 beta concentration. Cytokine concentration in supernatants was compared to supernatants obtained from unstimulated PBMC cultured identically.

[10] = 25 MG/KG intratracheally at -24 hours then twice a week, 7 weeks, Table 1
[11] = 100 MG/KG intratracheally, 7 weeks, Table 1
[12] = 250 MG/KG intratracheally, 7 weeks, Table 1

## CCCCCCCCCCC[C@H](CC(=O)N[C@H]1[C@H](OC[C@H](NC(=O)C[C@@H](CCCCCCCCCCC)OC(=O)CCCCCCCCC)C(=O)O)O[C@H](CO)[C@@H](OP(=O)(O)O)[C@@H]1OC(=O)C[C@@H](CCCCCCCCCCC)OC(=O)CCCCCCCCC)OC(=O)CCCCCCCCC.CCN(CC)CC [RC-527]
[1]; donor 1
  IL-1β cba2: 7102
  IL10/TNFα cba: 0.4
  TNFα/IL10 cba: 2.5
[1]; donor 2
  IL10/TNFα cba: 0.3
  TNFα/IL10 cba: 3.4
[2]
  % inhib. LPS IL-8: 5%
[3]; 4 hr activation
  CD3+ CD69+ percent expression in NK-Cells (CD56+): 11%
  CD25+ percent expression in B-cells (CD19+): 0%
  CD25+ percent expression in Mono/Macs (CD14+): 1%
  CD69+ percent expression in B-cells (CD19+): 56%
  CD69+ percent expression in Mono/Macs (CD14+): 22%
  CD69+ percent expression in NK-Cells (CD56+): 40%
  CD69+ percent expression in T-cells (CD3+): 10%
  CD86+ percent expression in B-cells (CD19+): 8%
  CD95+ percent expression in B-cells (CD19+): 7%
  MFI CD11b+ in Mono/Macs (CD14+): 1870
  MFI CD54+ (ICAM-1) in B-cells (CD19+): 65
  MFI CD54+(ICAM-1) in Mono/Macs (CD14+): 743
  TLR2+ percent expression in Mono/Macs (CD14+): 85%
[3]; 24 hr activation
  CD3+ CD69+ percent expression in NK-Cells (CD56+): 16%
  CD14+ CD25+ percent expression in Mono/Macs (CD14+): 70%
  CD14+ CD69+ percent expression in Mono/Macs (CD14+): 22%
  CD14+ TLR2+ percent expression in Mono/Macs (CD14+): 97%
  CD19+ CD25+ percent expression in B-Cells (CD19+): 34%
  CD19+ CD69+ percent expression in B-Cells (CD19+): 66%
  CD19+ CD86+ percent expression in B-Cells (CD19+): 51%
  CD19+ CD95+ percent expression in B-Cells (CD19+): 73%
  CD69+ percent expression in NK-Cells (CD56+): 50%
  CD69+ percent expression in T-cells (CD3+): 10%
  MFI CD11b+ in Mono/Macs (CD14+): 1611
  MFI CD54+ (ICAM-1) in B-cells (CD19+): 211
  MFI CD54+(ICAM-1) in Mono/Macs (CD14+): 4445
[4]
  protection against L. monocytogenes challenge (reduction of log 10 bacteria per spleen vs vehicle): protection that was equal to or greater than that provided by MPL
[5]
  protection against influenza challenge over dose range: maximum protection over a dose range of 2.5 μg to 40 μg

## 3-O-deacylated monophosphoryl lipid A [MPL]
[6]; [10]
  GIEMSA score for presence of P. carinii: 3.4 ± 0.5
  SILVER score for presence of P. carinii: 3.3 ± 0.1
[6]; [11]
  GIEMSA score for presence of P. carinii: 2.7 ± 0.5
  SILVER score for presence of P. carinii: 3.2 ± 0.1
[6]; 100 MG/KG, repeated study, Table 2
  GIEMSA score for presence of P. carinii: 1.3 ± 0.3
[6]; 200 MG/KG, repeated study, Table 2
  GIEMSA score for presence of P. carinii: 1.0 ± 0.3
[6]; [12]
  GIEMSA score for presence of P. carinii: 1.8 ± 0.8
  SILVER score for presence of P. carinii: 1.6 ± 0.2
[6]; pulmonary delivery, immunocompromised mice
  nonspecific resistance to infection by Pneumocystis carinii: promotes nonspecific resistance to infection by Pneumocystis carinii
[7]
  cytokine response: Neither MPL nor RC552 induced a cytokine response
[8]; 1 hour
  early TNF alpha RNA: early (1 hour) TNF alpha RNA for both compounds
[8]; 6 hour
  6 hour TNF alpha RNA: measurable 6 hour RNA
[1]; donor 1
  IL-1β cba2: 1213
[1]; donor 2
  IL10/TNFα cba: 1
  TNFα/IL10 cba: 1

## CCCCCCCCCCCCCC(=O)O[C@H](CCCCCCCCCCC)CC(=O)NCCO[C@@H]1O[C@H](CO)[C@@H](OP(=O)(O)O)[C@H](OC(=O)C[C@@H](CCCCCCCCCCC)OC(=O)CCCCCCCCCCCCC)[C@H]1NC(=O)C[C@@H](CCCCCCCCCCC)OC(=O)CCCCCCCCCCCCC.CCN(CC)CC [RC-529]
[1]; donor 1
  IL10/TNFα cba: 6.2
  TNFα/IL10 cba: 0.4
[9]
  IL-6 elaboration compared to MPL: induced more IL-6, IL-10 and MIP-1 beta than did MPL
  IL-10 elaboration compared to MPL: induced more IL-6, IL-10 and MIP-1 beta than did MPL
  MIP-1 beta elaboration compared to MPL: induced more IL-6, IL-10 and MIP-1 beta than did MPL
